Positions count from the first letter of the chain named.

What all share (assay): coupled spectrophotometric PFK1 assay ([…] nm) with purified enzyme
Common to all, as to assay type: biochemical

For test [1], the target named is T1, human muscle type 6-phosphofructo-1-kinase (PFK-M) (Homo sapiens, UniProt P08237, K617A).
T1 construct: gene PFKM; recombinant human PFK-M mutant expressed in E. coli RL257
T1 sequence (P08237 2-780 K617A): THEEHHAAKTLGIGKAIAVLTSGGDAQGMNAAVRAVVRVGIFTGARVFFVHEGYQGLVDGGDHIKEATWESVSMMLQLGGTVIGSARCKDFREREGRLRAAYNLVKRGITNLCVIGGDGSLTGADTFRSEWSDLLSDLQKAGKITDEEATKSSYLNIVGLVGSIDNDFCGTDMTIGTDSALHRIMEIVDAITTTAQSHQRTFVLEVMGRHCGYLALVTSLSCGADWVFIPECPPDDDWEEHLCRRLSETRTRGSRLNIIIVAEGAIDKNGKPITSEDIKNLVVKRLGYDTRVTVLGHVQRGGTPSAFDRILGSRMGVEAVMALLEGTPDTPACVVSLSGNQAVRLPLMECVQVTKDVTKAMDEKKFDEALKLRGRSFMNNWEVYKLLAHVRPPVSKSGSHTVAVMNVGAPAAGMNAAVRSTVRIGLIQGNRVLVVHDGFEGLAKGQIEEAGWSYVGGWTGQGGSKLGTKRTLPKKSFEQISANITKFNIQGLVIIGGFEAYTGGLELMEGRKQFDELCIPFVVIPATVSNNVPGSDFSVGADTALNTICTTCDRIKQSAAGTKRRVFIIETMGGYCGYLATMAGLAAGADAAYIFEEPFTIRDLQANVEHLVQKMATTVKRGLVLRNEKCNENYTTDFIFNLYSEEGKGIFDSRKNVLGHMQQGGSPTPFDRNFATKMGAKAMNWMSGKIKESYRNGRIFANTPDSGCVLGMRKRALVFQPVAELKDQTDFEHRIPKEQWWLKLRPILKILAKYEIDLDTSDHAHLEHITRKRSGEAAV

Test [2] addresses T2, human muscle type 6-phosphofructo-1-kinase (PFK-M) (Homo sapiens, UniProt P08237, K557R).
T2 construct: gene PFKM; recombinant human PFK-M mutant expressed in E. coli RL257
T2 sequence (P08237 2-780 K557R): T1 sequence (P08237 2-780 K617A) with K556R, A616K

Test [3] has as its target T3, human muscle type 6-phosphofructo-1-kinase (PFK-M) (Homo sapiens, UniProt P08237).
T3 construct: gene PFKM; recombinant native human PFK-M expressed in E. coli RL257
T3 sequence (P08237 2-780): T1 sequence (P08237 2-780 K617A) with A616K

A word on the Ki: it is the dissociation constant of the complex between target and ligand, obtained from inhibition or displacement. A high value points to weaker binding. Regarding `O=C(O)CC(O)(CC(=O)O)C(=O)O` [citrate], the inhibition constant (Ki) in test [1] came to 500 µM; in test [2] it was 300 µM; in test [3], 50 µM.

The values above are taken from paper PMC2990764, “Evolution of Allosteric Citrate Binding Sites on 6-phosphofructo-1-kinase” (PLoS ONE, 2010).
